Measurements as given in US8163795B2, “Chroman derivatives, medicaments and use in therapy” (Marshall Edwards, Inc., priority 2004, dated 2012).
Where two headings read alike, the source gives them in different places.

Columns and labels:
[1] = system: Neonatal foreskin fibroblasts (NFF); experiment: Proliferation assay (MTT), normal cell toxicity; type: cell-based, Human; details: read-out: IC50
Experimental: (§1) The normal cell line NFF (neonatal foreskin fibroblasts) was a sift from Dr. Peter Parsons (Queensland Institute of Medical Research). RK (rabbit kidney) cells were obtained from Miller Whalley (Macquarie University). Both cell lines were cultured in RPMI supplemented with 10% FCS(CSL, Australia), penicillin (100 U/ml), streptomycin ([…]), L-glutamine (2 mM) and sodium bicarbonate (1.2 g/L), and cultured at 37° C. in a humidified atmosphere of 5% CO2.
(§2) IC50 values were determined for each cell line. Cells were seeded in 96-well plates at an appropriate cell density as determined from growth kinetics analysis and cultured for 5 days in the absence and presence of the test compounds. Cell proliferation was assessed after the addition of 20 μl of 3-4,5 dimethylthiazol-2,5-diphenyl tetrazolium bromide (MTT, 2.5 mg/ml in PBS, Sigma) for 3-4 hrs at 37° C. according to manufacturer's instructions. IC50 values were calculated from semi-log plots of % of control proliferation on the y-axis against log dose on the x-axis.

[2] = system: CP70 ovarian cancer cell line; experiment: Proliferation assay (MTT); type: cell-based
[3] = system: SKOV-3 ovarian cancer cell line; experiment: Proliferation assay (MTT); type: cell-based
[4] = system: A2780 (Ovarian); experiment: Proliferation assay (MTT); type: cell-based; details: Table 2.1
Experimental: (§3) All cultures were supplemented with 10% FCS (fetal calf serum CSL, Australia), penicillin (100 U/ml), streptomycin ([…]), L-glutamine (2 mM) and sodium bicarbonate (1.2 g/L), and cultured at 37° C. in a humidified atmosphere of 5% CO2. All cell lines were purchased from ATCC (Maryland, USA) except where noted.
as §2

[5] = system: DU145 (Prostate); experiment: Proliferation assay (MTT); type: cell-based
Experimental: as §3, §2

[6] = system: HCT-15 (Colorectal); experiment: Proliferation assay (MTT); type: cell-based; details: Table 2.1, Colorectal HCT-15
Experimental: as §3, §2

[7] = system: HT-29 (Colorectal); experiment: Proliferation assay (MTT); type: cell-based; details: Table 2.1, Colorectal HT-29
Experimental: as §3, §2

[8] = system: HTB-138 (Glioma); experiment: Proliferation assay (MTT); type: cell-based; details: Table 2.1; Glioma HTB-138
Experimental: as §3, §2

[9] = system: LNCaP (Prostate); experiment: Proliferation assay (MTT); type: cell-based; details: Table 2.1
Experimental: as §3, §2

[10] = system: MCF-7 breast cancer cell line; experiment: Proliferation assay (MTT); type: cell-based; details: Table 2.1, Breast MCF-7
Experimental: as §3, §2

[11] = system: NCI-H460 (Lung); experiment: Proliferation assay (MTT); type: cell-based; details: Table 2.1, Lung NCI-H460
Experimental: as §3, §2

[12] = system: PC3 prostate cancer cell line; experiment: Proliferation assay (MTT); type: cell-based; details: Table 2.1
Experimental: as §3, §2

[13] = system: MDA-MB-468 breast cancer cell line; experiment: Proliferation assay (MTT); type: cell-based
[14] = system: HPAC (CRL-2119) pancreatic cancer cell line; experiment: Proliferation assay (MTT); type: cell-based, human
[15] = system: MM200 melanoma cell line; experiment: Proliferation assay (MTT); type: cell-based
[16] = system: A2058 melanoma cell line; experiment: Proliferation assay (MTT); type: cell-based; details: Table 2.1; Melanoma A2058
[17] = system: MM200 melanoma cell line; experiment: HMC combination with cisplatin (synergy); type: cell-based; details: Table 8, single agent
Experimental: as §2
3-D model analysis of the cytotoxic interaction between drug A and drug B enables the representation of predicted inhibitory effect of two drugs in combination in 3 dimensions to reveal actual regions of synergy or antagonism. The 3D synergy plots are based on a theory of “Theretical Additivity” (TA) as outlined by Kanzawa et al (Int. J. Cancer 71, 311-319 (1997)). Theoretical Additivity was calculated from the cytotoxicities of drug A and drug B as monotherapies using the following formula which assumes the drugs are mutually exclusive inhibitors: […]
The TA is calculated for each combination of drug concentrations and subtracted from the observed experimental effect for each combination to give a measurement of synergisitic action.
HMC synergy with cisplatin was assessed either in combination over 5 days exposure or in sequence (HMC→cisplatin) against the MM200 melanoma cell line. It was difficult to assess for synergisitic toxicity using a change in IC50 as a measure of synergy due to HMC toxicity as monotherapy (Table 8). […] Evidence of synergy using the HMC-cisplatin combination was further assessed using the HMC→cisplatin sequence (24 hr exposure to each compound in sequence) against the melanoma cell line MM200. Using change in IC50 to assess for synergy it was noted that HMC at concentrations of 2 μM markedly chemosensitised the MM200 cells to cisplatin by >1000 fold (Table 8). HMC induced chemosensitisation of MM200 cells to cisplatin was confirmed using 3D analysis of the data (FIG. 11B).

[18] = system: rabbit kidney cells (RK); experiment: Proliferation assay (MTT), normal cell toxicity; type: cell-based; details: read-out: IC50
Experimental: as §1, §2

[19] = system: CCRF-CEM (Leukemic); experiment: Proliferation assay (MTT); type: cell-based; details: Homo sapiens; Table 2.1; Leukemic CCRF-CEM
Experimental: as §3, §2

[20] = system: MM96L melanoma cell line; experiment: Proliferation assay (MTT); type: cell-based; details: Homo sapiens, Table 15
Experimental: as §3, §2

[21] = system: NCI-H23 (Lung); experiment: Proliferation assay (MTT); type: cell-based; details: Homo sapiens, Table 2.1
Experimental: as §3, §2

[22] = system: RPMI-8226 (Leukemic); experiment: Proliferation assay (MTT); type: cell-based; details: Homo sapiens; Table 2.1; Leukemic RPMI-8226
Experimental: as §3, §2

[23] = system: SKMe128 melanoma cell line; experiment: Proliferation assay (MTT); type: cell-based; details: Table 15
Experimental: as §3, §2

[24] = DHE and HMC pharmacokinetics, oral, mice; type: in vivo, female BALB/c mice; details: for Free plasma concentration: 50 mg/kg p.o.
Experimental: HMC and DHE were prepared as homogenous suspensions in 1% CMC (m:v, water). Both formulations were delivered orally by gavage to female BALB/c mice at a dosage of 50 mg/kg. Three animals were allocated to each timepoint (15 min, 30 min, 1 hr, 4 hr and 24 hr). At each respective timepoint, animals were euthanased by cervical dislocation and blood collected. Free HMC was analysed by mass spectroscopy.

[25] = system: MEL-RM melanoma cells (TRAIL sensitive); experiment: Apoptosis incidence in melanoma cells; type: cell-based
[26] = system: ME4405 melanoma cells (TRAIL sensitive); experiment: Apoptosis incidence in melanoma cells; type: cell-based
[27] = system: IGR3 melanoma cells (Trail-resistant); experiment: Apoptosis incidence in melanoma cells; type: cell-based
[28] = system: Mel-AT melanoma cells (Trail +ve/Caspase 8 −ve); experiment: Apoptosis incidence in melanoma cells; type: cell-based
[29] = system: TRAIL-sensitive and -resistant melanoma cells; experiment: Apoptosis incidence, statements over several melanoma cell lines; type: cell-based; details: 4 μM, 24 hr exposure, DHE-treated cells
[30] = system: normal fibroblasts (MRC-5); experiment: Apoptosis in normal fibroblasts; type: cell-based; details: same concentration (8 μM) and exposure times (24 and 48 hr) as melanoma cells
Experimental: Studies were conducted on normal fibroblasts (MRC-5) and TRAIL-sensitive melanoma cells (ME4405 and MEL-RM) using 8 μM of either DHE, or HMC over 24 and 48 hr of exposure (FIG. 9).

[31] = Table 1, Neonatal Foreskin Fibroblasts (Human, NFF)

SMILES: N.N.[Cl][Pt][Cl] [Cisplatin, cisplatin, reference compound]
- IC50 [1, 31]: 9.85 ± 5 µM
- IC50 ([2]; Table 2.1, Ovarian CP70, read-out: IC50): 10.3 µM
- IC50 ([3]; Table 2.1, Ovarian SKOV-3, read-out: IC50): 5.4 µM
- IC50 [4]: 2.1 µM
- IC50 ([5]; Table 2.1): 2.07 µM
- IC50 [6]: 130 ± 39 µM
- IC50 [7]: 22.7 ± 35 µM
- IC50 [8]: 42.3 µM
- IC50 [9]: > 10 µM
- IC50 [10]: 3.69 µM
- IC50 [11]: 22.3 µM
- IC50 [12]: 2.11 µM
- IC50 ([13]; Table 2.1, Breast MDA-MB-468, read-out: IC50): 0.58 µM
- IC50 ([14]; Table 2.1, Pancreatic CRL-2119, read-out: IC50): 9.36 µM
- IC50 ([15]; Table 2.1, Melanoma MM200, read-out: IC50): 8.3 ± 0.7 µM
- IC50 [16]: 5.73 ± 2.3 µM
- IC50 ([17]; 24 hr exposure, read-out: IC50, 24 hr (monotherapy)): 6.32 µM
- IC50 ([17]; 5 days exposure, read-out: IC50, Combined (monotherapy)): 8.82 µM

SMILES: Oc1ccc(C2=Cc3ccc(O)cc3OC2)cc1 [DHE, dehydroequol, reference compound]
- IC50 ([1]; Homo sapiens, Fibroblast, NFF): > 150 µM
- IC50 [1, 31]: > 150 µM
- IC50 ([18]; Oryctolagus cuniculus, rabbit kidney cells): > 150 µM
- IC50 ([18]; Table 1, Rabbit Kidney): > 150 µM
- IC50 [2]: 1.69 ± 0.62 µM
- IC50 ([3]; Homo sapiens, SK-OV-3): 21.8 ± 4.65 µM
- IC50 ([4]; Homo sapiens): 1.7 ± 0.61 µM
- IC50 [19]: 1.7 ± 0.68 µM
- IC50 ([5]; Homo sapiens, DU-145, Table 2.1): 5.95 ± 1.5 µM
- IC50 ([6]; Homo sapiens): 24.4 ± 12.6 µM
- IC50 ([7]; Homo sapiens): 50.5 ± 21.9 µM
- IC50 [8]: 7.35 ± 0.89 µM
- IC50 ([9]; Homo sapiens): 4.8 ± 3.8 µM
- IC50 ([10]; Homo sapiens, MCF7): 21.5 ± 13.2 µM
- IC50 [20]: 4.76 µM
- IC50 [21]: 8.75 ± 7.2 µM
- IC50 ([11]; Homo sapiens): 10.6 ± 3.8 µM
- IC50 [12]: 9.09 ± 8.12 µM
- IC50 [22]: 3.72 ± 0.08 µM
- IC50 [23]: 4.4 µM
- IC50 ([13]; Homo sapiens, MDA-MB-468): 7.9 ± 3.5 µM
- IC50 ([14]; Homo sapiens, HPAC): 56.6 ± 16.8 µM
- IC50 ([15]; Table 2.1, Melanoma MM200): 2.9 µM
- IC50 ([15]; Table 15, melanoma MM200, monotherapy): 4.77 ± 4 µM
- Free plasma concentration ([24]; Time 0.25): 3300 ± 130 nM
- Free plasma concentration ([24]; Time 0.5): 2900 ± 50 nM
- Free plasma concentration ([24]; Time 1): 1500 ± 110 nM
- Free plasma concentration ([24]; Time 4): 1300 ± 70 nM
- Free plasma concentration ([24]; Time 24): 150 ± 40 nM
- maximum plasma concentration of the free form ([24]; oral 50 mg/kg): 3.3 µM
- ratio of free:total ([24]; oral 50 mg/kg): 0.64
- time of maximum free concentration ([24]; oral 50 mg/kg): 15 min
- Percent Apoptosis ([25]; 24 hr exposure, 1 uM): 0%
- Percent Apoptosis ([25]; 24 hr exposure, 2 uM): 0%
- Percent Apoptosis ([25]; 24 hr exposure, 4 uM): 0%
- Percent Apoptosis ([25]; 24 hr exposure, 8 uM): 2%
- Percent Apoptosis ([25]; 24 hr exposure, 20 uM): 5%
- Percent Apoptosis ([25]; 48 hr exposure, 1 uM): 1%
- Percent Apoptosis ([25]; 48 hr exposure, 2 uM): 1.5%
- Percent Apoptosis ([25]; 48 hr exposure, 4 uM): 3%
- Percent Apoptosis ([25]; 48 hr exposure, 8 uM): 10%
- Percent Apoptosis ([25]; 48 hr exposure, 20 uM): 12%
- Percent Apoptosis ([26]; 24 hr exposure, 1 uM): 0%
- Percent Apoptosis ([26]; 24 hr exposure, 2 uM): 2%
- Percent Apoptosis ([26]; 24 hr exposure, 4 uM): 2%
- Percent Apoptosis ([26]; 24 hr exposure, 8 uM): 6%
- Percent Apoptosis ([26]; 24 hr exposure, 20 uM): 11%
- Percent Apoptosis ([26]; 48 hr exposure, 1 uM): 1%
- Percent Apoptosis ([26]; 48 hr exposure, 2 uM): 3%
- Percent Apoptosis ([26]; 48 hr exposure, 4 uM): 14%
- Percent Apoptosis ([26]; 48 hr exposure, 8 uM): 40%
- Percent Apoptosis ([26]; 48 hr exposure, 20 uM): 35%
- Percent Apoptosis ([27]; 24 hr exposure, 1 uM): 0%
- Percent Apoptosis ([27]; 24 hr exposure, 2 uM): 0%
- Percent Apoptosis ([27]; 24 hr exposure, 4 uM): 1%
- Percent Apoptosis ([27]; 24 hr exposure, 8 uM): 3%
- Percent Apoptosis ([27]; 24 hr exposure, 20 uM): 4%
- Percent Apoptosis ([27]; 48 hr exposure, 1 uM): 1%
- Percent Apoptosis ([27]; 48 hr exposure, 2 uM): 1%
- Percent Apoptosis ([27]; 48 hr exposure, 4 uM): 2%
- Percent Apoptosis ([27]; 48 hr exposure, 8 uM): 8%
- Percent Apoptosis ([27]; 48 hr exposure, 20 uM): 8%
- Percent Apoptosis ([28]; 24 hr exposure, 1 uM): 0%
- Percent Apoptosis ([28]; 24 hr exposure, 2 uM): 3%
- Percent Apoptosis ([28]; 24 hr exposure, 4 uM): 4%
- Percent Apoptosis ([28]; 24 hr exposure, 8 uM): 8%
- Percent Apoptosis ([28]; 24 hr exposure, 20 uM): 10%
- Percent Apoptosis ([28]; 48 hr exposure, 1 uM): 1.5%
- Percent Apoptosis ([28]; 48 hr exposure, 2 uM): 5%
- Percent Apoptosis ([28]; 48 hr exposure, 4 uM): 15%
- Percent Apoptosis ([28]; 48 hr exposure, 8 uM): 43%
- Percent Apoptosis ([28]; 48 hr exposure, 20 uM): 40%
- incidence of apoptosis [29]: 0-1%
- induction of apoptosis in normal fibroblasts [30]: do not induce apoptosis
